Assay results published in patent US10821115B2, “Compounds that inhibit Mcl-1 protein” (priority 2017, dated 2020).
Read-outs that look alike come from different tables or passages of the source.

How the values were obtained:
[1] = target: recombinant human Mcl-1 (residues 171-327) / Bim interaction (Homo sapiens (Human), UniProt Q07820); assay: biochemical; format: binding; details: TR-FRET, Mcl-1(171-327) / biotin-Bim (51-76); read-out: Mcl-1 HTRF IC50
[2] = system: human multiple myeloma cell line, OPM-2; assay: Cell viability assay (OPM-2 10 FBS), CellTiter-Glo; format: cell-based
Summary of the method: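 OPM-2 cells at 3000 cells/well in RPMI 1640 with 10% FBS were exposed to serially diluted compounds for 16 h at 37 °C, 5% CO2.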

[3] = Homo sapiens, OPM-2, 16 h, read-out: OPM-2 10% FBS IC50 IP, OPM-2 cells, 10% FBS, 16 h, CellTiter-Glo
[4] = read-out: OPM-2 10% FBS IC50 IP, OPM-2 cells, 10% FBS, 16 h, CellTiter-Glo

Chain of recombinant human Mcl-1 (residues 171-327) / Bim interaction (Q07820 171-327): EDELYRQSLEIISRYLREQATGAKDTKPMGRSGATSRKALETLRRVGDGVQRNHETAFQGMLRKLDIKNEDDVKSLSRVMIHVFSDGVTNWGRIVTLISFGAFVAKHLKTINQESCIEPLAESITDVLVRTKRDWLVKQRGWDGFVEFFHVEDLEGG

SMILES | IC50 [1] | IC50 [2, 3] | IC50 [2, 4]
COCCOC[C@@]1(O)CCC[C@H](C)[C@@H](C)S(=O)(=O)NC(=O)c2ccc3c(c2)N(C[C@@H]2CC[C@H]21)C[C@@]1(CCCc2cc(Cl)ccc21)CO3 [Example 100193, (1S,3′R,6′R,7′R,11′S,12′R)-6-chloro-7′-hydroxy-7′-((2-methoxyethoxy)methyl)-11′,12′-dimethyl-3,4-dihydro-2H,15′H-spiro[naphthalene-1,22′-[20]oxa[13]thia[1,14]diazatetracyclo [14.7.2.0~3,6~.0~19,24~]pentacosa[16,18,24]trien]-15′-one 13′,13′-dioxide] | 0.856 nM | 1300 nM | 
C[C@@H]1[C@@H](C)CCC[C@@](O)(COCCN(C)C)[C@@H]2CC[C@H]2CN2C[C@@]3(CCCc4cc(Cl)ccc43)COc3ccc(cc32)C(=O)NS1(=O)=O [Example 100194, (1S,3′R,6′R,7′S,11S,12R)-6-chloro-7′-((2-(dimethylamino)ethoxy)methyl)-7′-hydroxy-11′,12′-dimethyl-3,4-dihydro-2H,15′H-spiro[naphthalene-1,22′-[20]oxa[13]thia[1,14]diazatetracyclo [14.7.2.0~3,6~.0~19,24~]pentacosa[16,18,24]trien]-15′-one 13′,13′-dioxide] | 0.613 nM | 619 nM | 
C[C@@H]1[C@@H](C)CCC[C@](O)(COCCN(C)C)[C@@H]2CC[C@H]2CN2C[C@@]3(CCCc4cc(Cl)ccc43)COc3ccc(cc32)C(=O)NS1(=O)=O [Example 100195, (1S,3′R,6′R,7′R,11′S,12′R)-6-chloro-7′-((2-(dimethylamino)ethoxy)methyl)-7′-hydroxy-11′,12′-dimethyl-3,4-dihydro-2H,15′H-spiro[naphthalene-1,22′-[20]oxa[13]thia[1,14]diazatetracyclo [14.7.2.0~3,6~.0~19,24~]pentacosa[16,18,24]trien]-15′-one 13′,13′-dioxide] | 1.07 nM | 625 nM | 
C[C@@H]1[C@@H](C)CCC[C@@]2(CC(N(C)C)=NO2)[C@@H]2CC[C@H]2CN2C[C@@]3(CCCc4cc(Cl)ccc43)COc3ccc(cc32)C(=O)NS1(=O)=O [Example 100197, (1S,3′R,6′R,7′R,11′S,12′R)-6-chloro-3″- (dimethylamino)-11′,12′-dimethyl-3,4-dihydro-2H,4″H,15′H-dispiro[naphthalene-1,22′-[20]oxa[13]thia[1,14]diazatetracyclo [14.7.2.0~3,6~.0~19,24~]pentacosa[16,18,24]triene-7′,5″-[1,2]oxazol]-15′-one 13′,13′-dioxide] | 0.774 nM | 2460 nM | 
C[C@@H]1[C@@H](C)C/C=C/[C@](O)(c2nccn2C)[C@@H]2CC[C@H]2CN2C[C@@]3(CCCc4cc(Cl)ccc43)COc3ccc(cc32)C(=O)NS1(=O)=O [Example 100198, (1S,3′R,6′R,7′R,8′E,11′S,12′R)-6-chloro-7′-hydroxy-11′,12′-dimethyl-7′-(1-methyl-1H-imidazol-2-yl)-3,4-dihydro-2H,15′H-spiro[naphthalene-1,22′-[20]oxa[13]thia[1,14]diazatetracyclo [14.7.2.0~3,6~.0~19,24~]pentacosa[8,16,18,24]tetraen]-15′-one 13′,13′-dioxide] | 0.307 nM |  | 399 nM
C[C@@H]1[C@@H](C)C/C=C/[C@@](O)(c2nccn2C)[C@@H]2CC[C@H]2CN2C[C@@]3(CCCc4cc(Cl)ccc43)COc3ccc(cc32)C(=O)NS1(=O)=O [Example 100199, (1S,3′R,6′R,7′S,8′E,11′S,12′R)-6-chloro-7′-hydroxy-11′,12′-dimethyl-7′-(1-methyl-1H-imidazol-2-yl)-3,4-dihydro-2H,15′H-spiro[naphthalene-1,22′-[20]oxa[13]thia[1,14]diazatetracyclo [14.7.2.0~3,6~.0~19,24~]pentacosa[8,16,18,24]tetraen]-15′-one 13′,13′-dioxide] | 0.166 nM | 148 nM | 
C[C@@H]1[C@@H](C)C/C=C/[C@@](O)(c2nc(CO)nn2C)[C@@H]2CC[C@H]2CN2C[C@@]3(CCCc4cc(Cl)ccc43)COc3ccc(cc32)C(=O)NS1(=O)=O [Example 100200, (1S,3′R,6′R,7′S,8′E,11′S,12′R)-6-chloro-7′-hydroxy-7′-(3-(hydroxymethyl)-1-methyl-1H-1,2,4-triazol-5-yl)-11′,12′-dimethyl-3,4-dihydro-2H,15′H-spiro[naphthalene-1,22′-[20]oxa[13]thia[1,14]diazatetracyclo [14.7.2.0~3,6~.0~19,24~]pentacosa[8,16,18,24]tetraen]-15′-one 13′,13′-dioxide] | 0.213 nM | 1070 nM | 
C[C@@H]1[C@@H](C)C/C=C/[C@](O)(c2nc(CO)nn2C)[C@@H]2CC[C@H]2CN2C[C@@]3(CCCc4cc(Cl)ccc43)COc3ccc(cc32)C(=O)NS1(=O)=O [Example 100201, (1S,3′R,6′R,7′R,8′E,11′S,12′R)-6-chloro-7′-hydroxy-7′-(3-(hydroxymethyl)-1-methyl-1H-1,2,4-triazol-5-yl)-11′,12′-dimethyl-3,4-dihydro-2H,15′H-spiro[naphthalene-1,22′-[20]oxa[13]thia[1,14]diazatetracyclo [14.7.2.0~3,6~.0~19,24~]pentacosa[8,16,18,24]tetraen]-15′-one 13′,13′-dioxide] | 0.086 nM | 307 nM | 
C[C@@H]1[C@@H](C)CCC[C@@](O)([C@@H]2CCN(C)C2=O)[C@@H]2CC[C@H]2CN2C[C@@]3(CCCc4cc(Cl)ccc43)COc3ccc(cc32)C(=O)NS1(=O)=O [Example 100202, (1S,3′R,6′R,7′S,11′S,12′R)-6-chloro-7′-hydroxy-11′,12′-dimethyl-7′-((3S)-1-methyl-2-oxo-3-pyrrolidinyl)-3,4-dihydro-2H,15′H-spiro[naphthalene-1,22′-[20]oxa[13]thia[1,14]diazatetracyclo [14.7.2.0~3,6~.0~19,24~]pentacosa[16,18,24]trien]-15′-one 13′,13′-dioxide] | 0.352 nM |  | 928 nM
C[C@@H]1[C@@H](C)CCC[C@@](O)([C@@H]2CCN(C)C2=O)[C@@H]2CC[C@H]2CN2C[C@@]3(CCCc4cc(Cl)ccc43)COc3ccc(cc32)C(=O)NS1(=O)=O [Example 100203, (1S,3′R,6′R,7′S,11′S,12′R)-6-chloro-7′-hydroxy-11′,12′-dimethyl-7′-((3S)-1-methyl-2-oxo-3-pyrrolidinyl)-3,4-dihydro-2H,15′H-spiro[naphthalene-1,22′-[20]oxa[13]thia[1,14]diazatetracyclo [14.7.2.0~3,6~.0~19,24~]pentacosa[16,18,24]trien]-15′-one 13′,13′-dioxide] | 0.285 nM |  | 491 nM
C[C@@H]1[C@@H](C)CCC[C@@](O)([C@@H]2CCN(C)C2=O)[C@@H]2CC[C@H]2CN2C[C@@]3(CCCc4cc(Cl)ccc43)COc3ccc(cc32)C(=O)NS1(=O)=O [Example 100204, (1S,3′R,6′R,7′S,11′S,12′R)-6-chloro-7′-hydroxy-11′,12′-dimethyl-7′-((3S)-1-methyl-2-oxo-3-pyrrolidinyl)-3,4-dihydro-2H,15′H-spiro[naphthalene-1,22′-[20]oxa[13]thia[1,14]diazatetracyclo [14.7.2.0~3,6~.0~19,24~]pentacosa[16,18,24]trien]-15′-one 13′,13′-dioxide] | 1.66 nM |  | 5270 nM
